For 13 molecules, TGI results are on record in PubChem BioAssay (NCI).

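Growth conditions: 96-well plates. Treatment: test compound, 48 hours, 5 concentrations. Analysis: linear interpolation between bracketing concentrations; unreached endpoints set to highest concentration. Definition used: TGI = concentration required for complete inhibition of growth.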 Where only a bound is given, the exact number is not on record here.

Test systems include SK-MEL-2 melanoma; OVCAR-3 ovarian; HCT-15 colon; NCI-H23 lung; BT-549 breast; RXF 393 renal; MDA-MB-231 breast; NCI-H522 lung; HOP-62 NSCLC; SF-268 CNS.
What all share (assay): inhibition of tumour cell growth, NCI panel, 48 h

Take `CC(=O)NC1C(OCc2ccccc2)OC(CO)C(O)C1OC(C)C(=O)N[C@@H](C)C(=O)N[C@H](CCC(=O)NCCNCCNc1c2ccccc2nc2cccc([N+](=O)[O-])c12)C(N)=O` (stereo not given in full): the TGI in the assay with SK-MEL-2 melanoma was 0.138 µM; with OVCAR-3 ovarian it was 4.44 µM; with HCT-15 colon, 1.63 µM; in the assay with NCI-H23 lung, 0.0902 µM; with BT-549 breast, 0.221 µM; with RXF 393 renal it was 0.0844 µM. Moreover, the TGI in the assay with MDA-MB-231 breast was determined as 0.639 µM; in the assay on NCI-H522 lung, 0.0665 µM; in the assay on HOP-62 NSCLC it was 5.17 µM; in the assay on SF-268 CNS, 2.14 µM.

With `CCc1nc(N)c2nc(-c3cccs3)oc2n1`, the TGI with SK-MEL-2 melanoma, in the assay with OVCAR-3 ovarian, with HCT-15 colon, in the assay with NCI-H23 lung, with BT-549 breast and in the assay on RXF 393 renal was more than 100 µM throughout. The TGI with MDA-MB-231 breast, with NCI-H522 lung, with HOP-62 NSCLC and in the assay on SF-268 CNS was more than 100 µM in each case.

Take `C=C1CCC[C@@H](C)C(O)[C@@H]2OC(=O)C(=C)[C@@H]2C[C@@H](OC(C)=O)[C@@]2(C)CC[C@@H]1O2` (stereo not given in full): the TGI was 15.8 µM with SK-MEL-2 melanoma; 11.5 µM in the assay with OVCAR-3 ovarian; 10.6 µM with HCT-15 colon; 15.2 µM with NCI-H23 lung; 14.4 µM in the assay with BT-549 breast; 12.9 µM with RXF 393 renal. Besides, the TGI in the assay with MDA-MB-231 breast turned out to be 16.3 µM; in the assay with NCI-H522 lung it was 4.93 µM; with HOP-62 NSCLC, 18.7 µM; in the assay on SF-268 CNS, 15.7 µM.

Regarding `COP(=O)(OC)OCN(C)CC/C=C(\C)CC/C=C(\C)CCC=C(C)C`, the TGI was found to be 28.2 µM with SK-MEL-2 melanoma; 29.9 µM in the assay on OVCAR-3 ovarian; 30.3 µM in the assay with HCT-15 colon; 34.7 µM in the assay with NCI-H23 lung; 30 µM with BT-549 breast; 49.1 µM in the assay on RXF 393 renal. Besides, the TGI in the assay on MDA-MB-231 breast worked out at 56.3 µM; in the assay with NCI-H522 lung, 26.1 µM; in the assay with HOP-62 NSCLC it was 29.7 µM; in the assay on SF-268 CNS it was 30.8 µM.

Consider `Clc1ccc2c(c1)N(CCCN1CCCC13CCCCC3)c1ccccc1S2`, for which the TGI in the assay with SK-MEL-2 melanoma is 22.1 µM; with OVCAR-3 ovarian, 34.4 µM; in the assay on HCT-15 colon it was 42.5 µM; with NCI-H23 lung, 44.2 µM; with BT-549 breast, 32.5 µM; with RXF 393 renal, 17.6 µM. The TGI with MDA-MB-231 breast is 21.5 µM; in the assay on NCI-H522 lung it was 25.1 µM; in the assay with HOP-62 NSCLC, 33.4 µM; in the assay on SF-268 CNS, more than 58.7 µM.

For the molecule `COc1cc2c(/C=C3/C(=O)Nc4ccccc43)c(Cl)n(Cc3ccc(Cl)cc3)c2cc1C`, the TGI was 17.3 µM in the assay with SK-MEL-2 melanoma; 0.432 µM with OVCAR-3 ovarian; 0.969 µM in the assay with HCT-15 colon; 0.644 µM in the assay on NCI-H23 lung; 1.92 µM in the assay with BT-549 breast; 4.85 µM in the assay on RXF 393 renal. The TGI was found to be 0.754 µM with MDA-MB-231 breast, 2.06 µM in the assay on NCI-H522 lung, 0.821 µM in the assay with HOP-62 NSCLC and 21.3 µM with SF-268 CNS.

As for `O=P1(N(CCCl)CCCl)Oc2ccc(Cl)cc2C(C(Cl)(Cl)Cl)c2cc(Cl)ccc2O1` (stereo not given), the TGI in the assay with SK-MEL-2 melanoma was 47.3 µM; in the assay on OVCAR-3 ovarian, 24.3 µM; with HCT-15 colon, 23.5 µM; with NCI-H23 lung it was more than 100 µM; with BT-549 breast, more than 100 µM; with RXF 393 renal, 29.3 µM. Besides, the TGI in the assay with MDA-MB-231 breast is 44.4 µM; with NCI-H522 lung, 42.9 µM; with HOP-62 NSCLC, 27.9 µM; in the assay with SF-268 CNS, more than 100 µM.

As for `CCOP(=O)(/C=C/n1cc(C)c(=O)[nH]c1=O)OCC`, the TGI in the assay with SK-MEL-2 melanoma, in the assay on OVCAR-3 ovarian, in the assay on HCT-15 colon, in the assay on NCI-H23 lung, in the assay with BT-549 breast and in the assay on RXF 393 renal was more than 100 µM each time. For the same molecule, the TGI with MDA-MB-231 breast, with NCI-H522 lung, in the assay with HOP-62 NSCLC and with SF-268 CNS was more than 100 µM throughout.

With `O=CCCCCCOCc1ccccc1`, the TGI in the assay with SK-MEL-2 melanoma was more than 100 µM; with OVCAR-3 ovarian it was more than 100 µM; in the assay with HCT-15 colon, more than 100 µM; in the assay with NCI-H23 lung it was more than 82.6 µM; with BT-549 breast, more than 100 µM; in the assay on RXF 393 renal, more than 100 µM. The TGI with MDA-MB-231 breast is more than 100 µM; in the assay on NCI-H522 lung, more than 100 µM; with HOP-62 NSCLC, 79.9 µM; with SF-268 CNS, more than 100 µM.

In the case of `Nc1c(C(=O)c2ccc(Cl)c(Cl)c2)[nH]c(NCc2ccccc2)c1C(=S)Nc1ccccc1`, the TGI in the assay on SK-MEL-2 melanoma was determined as 25.9 µM; in the assay with OVCAR-3 ovarian it was 38.5 µM; with HCT-15 colon, 6.27 µM; with NCI-H23 lung, 41.6 µM; in the assay on BT-549 breast, 30.5 µM; with RXF 393 renal it was 27.3 µM. In addition, the TGI is 17.6 µM in the assay with MDA-MB-231 breast, 17.7 µM in the assay with NCI-H522 lung, 34.7 µM in the assay with HOP-62 NSCLC and 31.5 µM in the assay on SF-268 CNS.

As to `CC(C)(CO[C@H]1C[C@H]2CC[C@@]1(C)C2(C)C)[N+](=O)[O-]`, the TGI with SK-MEL-2 melanoma turned out to be 31.3 µM; in the assay with OVCAR-3 ovarian, 56.5 µM; in the assay on HCT-15 colon, 51.6 µM; with NCI-H23 lung it was 65.6 µM; in the assay with BT-549 breast, 45.5 µM; in the assay on RXF 393 renal, 26.1 µM. In addition, the TGI in the assay on MDA-MB-231 breast is 34.6 µM; with NCI-H522 lung, 40.5 µM; with HOP-62 NSCLC it was 38.4 µM; in the assay with SF-268 CNS, more than 100 µM.

Consider `COC(=N)C1(C#N)NC(c2ccsc2)C(C#N)(C#N)NC1c1ccsc1` (stereo not given), for which the TGI in the assay with SK-MEL-2 melanoma, in the assay with OVCAR-3 ovarian, in the assay on HCT-15 colon, in the assay with NCI-H23 lung, in the assay with BT-549 breast and in the assay with RXF 393 renal was more than 100 µM throughout. Also, the TGI with MDA-MB-231 breast, in the assay on NCI-H522 lung, with HOP-62 NSCLC and with SF-268 CNS was more than 100 µM throughout.

Consider `NC(=O)[C@H](Cc1ccc(O)cc1)Nc1c(O)c2c(c(O)c1Cl)C(=O)C=CC2=O`, for which the TGI with SK-MEL-2 melanoma was more than 10 µM; in the assay on OVCAR-3 ovarian, more than 5.74 µM; in the assay with HCT-15 colon, 3.89 µM; with NCI-H23 lung, more than 8.2 µM; with BT-549 breast, 5.26 µM; in the assay with RXF 393 renal, 9.56 µM. The TGI with MDA-MB-231 breast is 5.23 µM; in the assay with NCI-H522 lung, 4.01 µM; in the assay with HOP-62 NSCLC, more than 10 µM; in the assay with SF-268 CNS it was more than 10 µM.
